Source: ChEMBL document CHEMBL3885881, “DrugMatrix”

Species on record: Rattus norvegicus
Assay: DrugMatrix - Regimen: Daily Repeat
Type: toxicity, organism-based, Sprague-Dawley
Parameters: regimen Daily Repeat, gender Male, age 6-8 weeks
Details: in vivo, po, route oral GAVAGE, vehicle .5 % CMC; for ABSOLUTE BASOPHIL / ABSOLUTE EOSINOPHIL / ABSOLUTE LYMPHOCYTE / ABSOLUTE MONOCYTE / ABSOLUTE SEGMENTED NEUTROPHIL / BASOPHIL / EOSINOPHIL / ERYTHROCYTE COUNT / HEMATOCRIT / HEMOGLOBIN / LEUKOCYTE COUNT / LYMPHOCYTE / MEAN CORPUSCULAR HEMOGLOBIN / MEAN CORPUSCULAR HEMOGLOBIN CONCENTRATION / MEAN CORPUSCULAR VOLUME / MONOCYTE / NEUTROPHIL / NUCLEATED RED BLOOD CELLS / PLATELET COUNT: tissue Blood; for ALANINE AMINOTRANSFERASE / ALBUMIN / ALKALINE PHOSPHATASE / ASPARTATE AMINOTRANSFERASE / BLOOD UREA NITROGEN / CARBON DIOXIDE / CHLORIDE / CHOLESTEROL / CREATINE PHOSPHOKINASE / CREATININE / GLUCOSE / LACTATE DEHYDROGENASE / LIPASE / PHOSPHORUS / POTASSIUM / SODIUM / TOTAL BILIRUBIN / TOTAL PROTEIN / URIC ACID: tissue Plasma
[1] = 0 mg/kg, 72 h, dose level Control, time 3 day
[2] = 0 mg/kg, 120 h, dose level Control, time 5 day
[3] = 60 mg/kg, 72 h, dose level Low, time 3 day
[4] = 60 mg/kg, 120 h, dose level Low, time 5 day

SMILES: CC(C)[C@H]1CC[C@H](C(=O)N[C@H](Cc2ccccc2)C(=O)O)CC1 [NATEGLINIDE]
- ABSOLUTE BASOPHIL [1]: 0 CELLS/uL
- ABSOLUTE EOSINOPHIL [1]: 35.67 CELLS/uL
- ABSOLUTE LYMPHOCYTE [1]: 9125.17 CELLS/uL
- ABSOLUTE MONOCYTE [1]: 50.17 CELLS/uL
- ABSOLUTE SEGMENTED NEUTROPHIL [1]: 722.33 CELLS/uL
- BASOPHIL [1]: 0%
- EOSINOPHIL [1]: 0.33%
- ERYTHROCYTE COUNT [1]: 5.35 x10E6/uL
- HEMATOCRIT [1]: 33.58%
- HEMOGLOBIN [1]: 13.35 G/DL
- LEUKOCYTE COUNT [1]: 9.93 x10E3/uL
- LYMPHOCYTE [1]: 91.67%
- MEAN CORPUSCULAR HEMOGLOBIN [1]: 25 pg
- MEAN CORPUSCULAR HEMOGLOBIN CONCENTRATION [1]: 39.8 G/DL
- MEAN CORPUSCULAR VOLUME [1]: 62.77 fL
- MONOCYTE [1]: 0.67%
- NEUTROPHIL [1]: 7.33%
- NUCLEATED RED BLOOD CELLS [1]: 0 /100WBC
- PLATELET COUNT [1]: 866.17 x10E3/uL
- ALANINE AMINOTRANSFERASE [1]: 57.17 u/L
- ALBUMIN [1]: 4.22 G/DL
- ALKALINE PHOSPHATASE [1]: 391 u/L
- ASPARTATE AMINOTRANSFERASE [1]: 95.17 u/L
- BLOOD UREA NITROGEN [1]: 13.67 mg/dL
- CARBON DIOXIDE [1]: 30 mmol/L
- CHLORIDE [1]: 102.5 MEQ/L
- CHOLESTEROL [1]: 72 mg/dL
- CREATINE PHOSPHOKINASE [1]: 485.67 u/L
- CREATININE [1]: 0.27 mg/dL
- GLUCOSE [1]: 152 mg/dL
- LACTATE DEHYDROGENASE [1]: 372.67 u/L
- LIPASE [1]: 9.83 u/L
- PHOSPHORUS [1]: 12.47 mg/dL
- POTASSIUM [1]: 6.81 MEQ/L
- SODIUM [1]: 144.1 MEQ/L
- TOTAL BILIRUBIN [1]: 0.23 mg/dL
- TOTAL PROTEIN [1]: 5.93 G/DL
- URIC ACID [1]: 1.9 mg/dL
- ABSOLUTE BASOPHIL [2]: 0 CELLS/uL
- ABSOLUTE EOSINOPHIL [2]: 67.33 CELLS/uL
- ABSOLUTE LYMPHOCYTE [2]: 11419.17 CELLS/uL
- ABSOLUTE MONOCYTE [2]: 203.17 CELLS/uL
- ABSOLUTE SEGMENTED NEUTROPHIL [2]: 1327 CELLS/uL
- BASOPHIL [2]: 0%
- EOSINOPHIL [2]: 0.5%
- ERYTHROCYTE COUNT [2]: 5.65 x10E6/uL
- HEMATOCRIT [2]: 35.3%
- HEMOGLOBIN [2]: 13.98 G/DL
- LEUKOCYTE COUNT [2]: 13.02 x10E3/uL
- LYMPHOCYTE [2]: 88%
- MEAN CORPUSCULAR HEMOGLOBIN [2]: 24.78 pg
- MEAN CORPUSCULAR HEMOGLOBIN CONCENTRATION [2]: 39.63 G/DL
- MEAN CORPUSCULAR VOLUME [2]: 62.58 fL
- MONOCYTE [2]: 1.33%
- NEUTROPHIL [2]: 10.17%
- NUCLEATED RED BLOOD CELLS [2]: 0 /100WBC
- PLATELET COUNT [2]: 1213.83 x10E3/uL
- ALANINE AMINOTRANSFERASE [2]: 49.67 u/L
- ALBUMIN [2]: 4.28 G/DL
- ALKALINE PHOSPHATASE [2]: 362.33 u/L
- ASPARTATE AMINOTRANSFERASE [2]: 99 u/L
- BLOOD UREA NITROGEN [2]: 20.67 mg/dL
- CARBON DIOXIDE [2]: 26.33 mmol/L
- CHLORIDE [2]: 102 MEQ/L
- CHOLESTEROL [2]: 63.83 mg/dL
- CREATINE PHOSPHOKINASE [2]: 481.83 u/L
- CREATININE [2]: 0.21 mg/dL
- GLUCOSE [2]: 158 mg/dL
- LACTATE DEHYDROGENASE [2]: 656.33 u/L
- LIPASE [2]: 10.67 u/L
- PHOSPHORUS [2]: 12.27 mg/dL
- POTASSIUM [2]: 6.17 MEQ/L
- SODIUM [2]: 143.35 MEQ/L
- TOTAL BILIRUBIN [2]: 0.17 mg/dL
- TOTAL PROTEIN [2]: 6.13 G/DL
- URIC ACID [2]: 1.48 mg/dL
- ABSOLUTE BASOPHIL [3]: 0 CELLS/uL
- ABSOLUTE EOSINOPHIL [3]: 0 CELLS/uL
- ABSOLUTE LYMPHOCYTE [3]: 9045.33 CELLS/uL
- ABSOLUTE MONOCYTE [3]: 160.67 CELLS/uL
- ABSOLUTE SEGMENTED NEUTROPHIL [3]: 994 CELLS/uL
- BASOPHIL [3]: 0%
- EOSINOPHIL [3]: 0%
- ERYTHROCYTE COUNT [3]: 5.13 x10E6/uL
- HEMATOCRIT [3]: 32.57%
- HEMOGLOBIN [3]: 13.4 G/DL
- LEUKOCYTE COUNT [3]: 10.2 x10E3/uL
- LYMPHOCYTE [3]: 88.33%
- MEAN CORPUSCULAR HEMOGLOBIN [3]: 26.2 pg
- MEAN CORPUSCULAR HEMOGLOBIN CONCENTRATION [3]: 41.17 G/DL
- MEAN CORPUSCULAR VOLUME [3]: 63.67 fL
- MONOCYTE [3]: 1.67%
- NEUTROPHIL [3]: 10%
- NUCLEATED RED BLOOD CELLS [3]: 0 /100WBC
- PLATELET COUNT [3]: 720 x10E3/uL
- ALANINE AMINOTRANSFERASE [3]: 53.67 u/L
- ALBUMIN [3]: 4.27 G/DL
- ALKALINE PHOSPHATASE [3]: 449.67 u/L
- ASPARTATE AMINOTRANSFERASE [3]: 94.67 u/L
- BLOOD UREA NITROGEN [3]: 17 mg/dL
- CARBON DIOXIDE [3]: 30.33 mmol/L
- CHLORIDE [3]: 103.67 MEQ/L
- CHOLESTEROL [3]: 73.67 mg/dL
- CREATINE PHOSPHOKINASE [3]: 447.67 u/L
- CREATININE [3]: 0.2 mg/dL
- GLUCOSE [3]: 149 mg/dL
- LACTATE DEHYDROGENASE [3]: 345.33 u/L
- LIPASE [3]: 8.67 u/L
- PHOSPHORUS [3]: 13 mg/dL
- POTASSIUM [3]: 6.04 MEQ/L
- SODIUM [3]: 145.07 MEQ/L
- TOTAL BILIRUBIN [3]: 0.13 mg/dL
- TOTAL PROTEIN [3]: 5.87 G/DL
- URIC ACID [3]: 1.33 mg/dL
- ABSOLUTE BASOPHIL [4]: 0 CELLS/uL
- ABSOLUTE EOSINOPHIL [4]: 124 CELLS/uL
- ABSOLUTE LYMPHOCYTE [4]: 13794 CELLS/uL
- ABSOLUTE MONOCYTE [4]: 49 CELLS/uL
- ABSOLUTE SEGMENTED NEUTROPHIL [4]: 933 CELLS/uL
- BASOPHIL [4]: 0%
- EOSINOPHIL [4]: 0.67%
- ERYTHROCYTE COUNT [4]: 5.42 x10E6/uL
- HEMATOCRIT [4]: 34.03%
- HEMOGLOBIN [4]: 13.53 G/DL
- LEUKOCYTE COUNT [4]: 14.9 x10E3/uL
- LYMPHOCYTE [4]: 92.33%
- MEAN CORPUSCULAR HEMOGLOBIN [4]: 25 pg
- MEAN CORPUSCULAR HEMOGLOBIN CONCENTRATION [4]: 39.77 G/DL
- MEAN CORPUSCULAR VOLUME [4]: 62.87 fL
- MONOCYTE [4]: 0.33%
- NEUTROPHIL [4]: 6.67%
- NUCLEATED RED BLOOD CELLS [4]: 0 /100WBC
- PLATELET COUNT [4]: 1175.33 x10E3/uL
- ALANINE AMINOTRANSFERASE [4]: 57.67 u/L
- ALBUMIN [4]: 4.2 G/DL
- ALKALINE PHOSPHATASE [4]: 396.67 u/L
- ASPARTATE AMINOTRANSFERASE [4]: 87 u/L
- BLOOD UREA NITROGEN [4]: 20 mg/dL
- CARBON DIOXIDE [4]: 25 mmol/L
- CHLORIDE [4]: 104 MEQ/L
- CHOLESTEROL [4]: 56 mg/dL
- CREATINE PHOSPHOKINASE [4]: 315 u/L
- CREATININE [4]: 0.27 mg/dL
- GLUCOSE [4]: 169.67 mg/dL
- LACTATE DEHYDROGENASE [4]: 303.33 u/L
- LIPASE [4]: 10.67 u/L
- PHOSPHORUS [4]: 12.97 mg/dL
- POTASSIUM [4]: 5.61 MEQ/L
- SODIUM [4]: 144.73 MEQ/L
- TOTAL BILIRUBIN [4]: 0.23 mg/dL
- TOTAL PROTEIN [4]: 5.93 G/DL
- URIC ACID [4]: 1.37 mg/dL
